# Experimental data published in publication PMC10418735, “Lipophilic Studies and In Silico ADME Profiling of Biologically Active 2-Aminothiazol-4(5H)-one Derivatives” (International Journal of Molecular Sciences, 2023).
# Assays:
# [1] = Lipophilicity by RP-TLC (methanol/water, HPTLC 60RP-18 plates); format: physicochemical; details: for −S (slope of the regression curve), RP–TLC / RM0: methanol/water, RP-TLC; for RM0: extrapolated to zero methanol concentration, 22 °C; for Φ0 (chromatographic lipophilicity parameter), RP–TLC: Φ0 = −RM0/S
# Experimental: Specifically, 10 × 10 cm plates with silica gel HPTLC 60RP-18 WF254s (Merck, Darmstadt, Niemcy) were used as the stationary phase. Methanol and water for HPLC from POCH (Gliwice, Poland) were used as solvents. Methanol concentration expressed as volume fraction v/v, varied in the range from 0.5 to 0.7 in constant steps of 0.05. Test compounds were dissolved in methanol (2 mg/mL), and then samples (0.01 mL) of each were applied to plates, which were developed in a horizontal DS chamber (Chromdes, Lublin, Poland).
# The developing distance was 8 cm. Developed plates were air-dried and observed under 254 nm ultraviolet lamp. All analyzes were performed at 22 °C. Experiments were performed in triplicate with similar results.
# For all the compounds, the relative lipophilicity RM values for five methanol–water mobile phases were calculated by the use of the following formula:(4) RM=log[1−RF/RF].
# The linear relationship between the RM values and the concentration of methanol in the mobile phase to determine the lipophilicity parameters RM0 is described by the following equation:(5) RM=RM0+SΦ, where Φ —methanol concentration in the mobile phase (volume fraction v/v), and S—the slope of the regression curve.
# The quantity Φ0 was calculated from the following equation:(6) Φ0=−RM0/S.
# [2] = Lipophilicity by RP-HPLC (methanol/water, RP-18 column); format: physicochemical; details: for −S (slope of the regression curve), RP–HPLC / log kw: methanol/water, RP-HPLC; for log kw: extrapolated to zero methanol concentration, 25 °C; for Φ0 (chromatographic lipophilicity parameter), RP–HPLC: Φ0 = −log kw/S
# Experimental: The HPLC experiments were performed on the Shimadzu HPLC system (Kyoto, Japan) equipped with solvent delivery pump LC-20AD, UV–VIS detector model SPD-20A, degasser model DGU-20A5, a column oven model CTO-20A, and a column Superspher® 100 RP-18 (4 μm), Merck (Darmstadt, Germany). Methanol and water for HPLC from POCH (Gliwice, Poland) were used as solvents. Mobile phase methanol/water varied in the various ratios. Methanol concentration expressed as volume fraction v/v, varied in the range from 0.55 to 0.95 in constant steps of 0.05. Compounds 1–28 were dissolved in methanol (1 mg/mL). The mobile phase flow rate was 0.7 mL/min. The injection volume was 0.02 mL. All analyzes were performed at 25 °C. Experiments were performed in triplicate with similar results.
# The retention coefficient k was calculated from the following relationship:(1) k=tr/tm−1, where tr [min]—retention time, and tm [min]—time for dead volume (measured by use of uracil).
# To determine the linear relationship between the values of the log k parameter and the concentration of methanol in the mobile phase, the Soczewiński–Wachtmeister equation was used:(2) logk= log kw+SΦ, where log kw —value extrapolated to zero methanol concentration, Φ —methanol concentration in the mobile phase (volume fraction v/v), and S—the slope of the regression curve.
# The parameter Φ0 was calculated from the equation:(3) Φ0=−log kw/S.
smiles,measurement,setting,value
CCC1SC(NC(C)(C)C)=NC1=O (stereo not drawn) [Compound 11],"−S (slope of the regression curve), RP–TLC",[1],2.478
same,RM0,[1],1.59
same,"Φ0 (chromatographic lipophilicity parameter), RP–TLC",[1],0.643
same,"−S (slope of the regression curve), RP–HPLC",[2],3.073
same,log kw,[2],1.88
same,"Φ0 (chromatographic lipophilicity parameter), RP–HPLC",[2],0.612
"O=C1N=C(NC23CC4CC(CC(C4)C2)C3)SC1c1ccc(Br)cc1 (stereo not drawn) [Compound 25, 2-(adamantan-1-ylamino)-5-(4-bromophenyl)thiazol-4(5H)-one]","−S (slope of the regression curve), RP–TLC",[1],3.277
same,RM0,[1],3.56
same,"Φ0 (chromatographic lipophilicity parameter), RP–TLC",[1],1.086
same,"−S (slope of the regression curve), RP–HPLC",[2],5.578
same,log kw,[2],5.63
same,"Φ0 (chromatographic lipophilicity parameter), RP–HPLC",[2],1.009
CCCC1SC(NC(C)C)=NC1=O (stereo not drawn) [Compound 3],"−S (slope of the regression curve), RP–TLC",[1],2.422
same,RM0,[1],1.63
same,"Φ0 (chromatographic lipophilicity parameter), RP–TLC",[1],0.673
same,"−S (slope of the regression curve), RP–HPLC",[2],3.494
same,log kw,[2],2.28
same,"Φ0 (chromatographic lipophilicity parameter), RP–HPLC",[2],0.652
CC(C)NC1=NC(=O)C(c2ccccc2)S1 (stereo not drawn) [Compound 6],"−S (slope of the regression curve), RP–TLC",[1],2.049
same,RM0,[1],1.58
same,"Φ0 (chromatographic lipophilicity parameter), RP–TLC",[1],0.771
same,"−S (slope of the regression curve), RP–HPLC",[2],4.3069
same,log kw,[2],2.84
same,"Φ0 (chromatographic lipophilicity parameter), RP–HPLC",[2],0.659
"CC(C)(C)NC1=NC(=O)C2(CCCCC2)S1 [Compound 17, 2-(tert-butylamino)-1-thia-3-azaspiro[4.5]dec-2-en-4-one]","−S (slope of the regression curve), RP–TLC",[1],2.477
same,RM0,[1],1.89
same,"Φ0 (chromatographic lipophilicity parameter), RP–TLC",[1],0.762
same,"−S (slope of the regression curve), RP–HPLC",[2],3.904
same,log kw,[2],2.86
same,"Φ0 (chromatographic lipophilicity parameter), RP–HPLC",[2],0.732
CC1SC(NC23CC4CC(CC(C4)C2)C3)=NC1=O (stereo not drawn) [Compound 19],"−S (slope of the regression curve), RP–TLC",[1],3.148
same,RM0,[1],2.55
same,"Φ0 (chromatographic lipophilicity parameter), RP–TLC",[1],0.810
same,"−S (slope of the regression curve), RP–HPLC",[2],4.099
same,log kw,[2],3.22
same,"Φ0 (chromatographic lipophilicity parameter), RP–HPLC",[2],0.786
CCC1SC(NC(C)C)=NC1=O (stereo not drawn) [Compound 2],"−S (slope of the regression curve), RP–TLC",[1],2.075
same,RM0,[1],1.39
same,"Φ0 (chromatographic lipophilicity parameter), RP–TLC",[1],0.668
same,"−S (slope of the regression curve), RP–HPLC",[2],3.254
same,log kw,[2],1.86
same,"Φ0 (chromatographic lipophilicity parameter), RP–HPLC",[2],0.571
CC(C)(C)NC1=NC(=O)C2(CCC2)S1 [Compound 18],"−S (slope of the regression curve), RP–TLC",[1],2.476
same,RM0,[1],1.69
same,"Φ0 (chromatographic lipophilicity parameter), RP–TLC",[1],0.683
same,"−S (slope of the regression curve), RP–HPLC",[2],3.297
same,log kw,[2],2.15
same,"Φ0 (chromatographic lipophilicity parameter), RP–HPLC",[2],0.652
CC1(C)SC(NC23CC4CC(CC(C4)C2)C3)=NC1=O [Compound 23],"−S (slope of the regression curve), RP–TLC",[1],2.446
same,RM0,[1],2.11
same,"Φ0 (chromatographic lipophilicity parameter), RP–TLC",[1],0.863
same,"−S (slope of the regression curve), RP–HPLC",[2],4.392
same,log kw,[2],3.54
same,"Φ0 (chromatographic lipophilicity parameter), RP–HPLC",[2],0.806
CCCC1SC(NC(C)(C)C)=NC1=O (stereo not drawn) [Compound 12],"−S (slope of the regression curve), RP–TLC",[1],2.426
same,RM0,[1],1.71
same,"Φ0 (chromatographic lipophilicity parameter), RP–TLC",[1],0.703
same,"−S (slope of the regression curve), RP–HPLC",[2],3.606
same,log kw,[2],2.46
same,"Φ0 (chromatographic lipophilicity parameter), RP–HPLC",[2],0.682
CC(C)NC1=NC(=O)C(c2ccc(Br)cc2)S1 (stereo not drawn) [Compound 7],"−S (slope of the regression curve), RP–TLC",[1],3.870
same,RM0,[1],2.85
same,"Φ0 (chromatographic lipophilicity parameter), RP–TLC",[1],0.736
same,"−S (slope of the regression curve), RP–HPLC",[2],4.422
same,log kw,[2],3.22
same,"Φ0 (chromatographic lipophilicity parameter), RP–HPLC",[2],0.728
"O=C1N=C(NC23CC4CC(CC(C4)C2)C3)SC1c1ccccc1 (stereo not drawn) [Compound 24, 2-(adamantan-1-ylamino)-5-phenylthiazol-4(5H)-one]","−S (slope of the regression curve), RP–TLC",[1],4.203
same,RM0,[1],3.31
same,"Φ0 (chromatographic lipophilicity parameter), RP–TLC",[1],0.787
same,"−S (slope of the regression curve), RP–HPLC",[2],5.024
same,log kw,[2],4.13
same,"Φ0 (chromatographic lipophilicity parameter), RP–HPLC",[2],0.822
CC(C)NC1=NC(=O)C(C(C)C)S1 (stereo not drawn) [Compound 4],"−S (slope of the regression curve), RP–TLC",[1],2.127
same,RM0,[1],1.41
same,"Φ0 (chromatographic lipophilicity parameter), RP–TLC",[1],0.663
same,"−S (slope of the regression curve), RP–HPLC",[2],3.603
same,log kw,[2],2.28
same,"Φ0 (chromatographic lipophilicity parameter), RP–HPLC",[2],0.633
O=C1N=C(NC23CC4CC(CC(C4)C2)C3)SC12CCCCC2 [Compound 26],"−S (slope of the regression curve), RP–TLC",[1],3.520
same,RM0,[1],3.09
same,"Φ0 (chromatographic lipophilicity parameter), RP–TLC",[1],0.879
same,"−S (slope of the regression curve), RP–HPLC",[2],5.192
same,log kw,[2],4.49
same,"Φ0 (chromatographic lipophilicity parameter), RP–HPLC",[2],0.865
"CC(C)NC1=NC(=O)C(C)S1 (stereo not drawn) [Compound 1, 5-methyl-2-isopropylaminothiazol-4(5H)-one]","−S (slope of the regression curve), RP–TLC",[1],1.280
same,RM0,[1],0.94
same,"Φ0 (chromatographic lipophilicity parameter), RP–TLC",[1],0.734
same,"−S (slope of the regression curve), RP–HPLC",[2],2.975
same,log kw,[2],1.35
same,"Φ0 (chromatographic lipophilicity parameter), RP–HPLC",[2],0.454
CC(C)NC1=NC(=O)C2(CCCCC2)S1 [Compound 8],"−S (slope of the regression curve), RP–TLC",[1],2.877
same,RM0,[1],2.04
same,"Φ0 (chromatographic lipophilicity parameter), RP–TLC",[1],0.709
same,"−S (slope of the regression curve), RP–HPLC",[2],4.170
same,log kw,[2],2.97
same,"Φ0 (chromatographic lipophilicity parameter), RP–HPLC",[2],0.712
CCCC1SC(NC23CC4CC(CC(C4)C2)C3)=NC1=O (stereo not drawn) [Compound 21],"−S (slope of the regression curve), RP–TLC",[1],2.564
same,RM0,[1],2.33
same,"Φ0 (chromatographic lipophilicity parameter), RP–TLC",[1],0.909
same,"−S (slope of the regression curve), RP–HPLC",[2],4.859
same,log kw,[2],4.08
same,"Φ0 (chromatographic lipophilicity parameter), RP–HPLC",[2],0.840
CC(C)(C)NC1=NC(=O)C(c2ccccc2)S1 (stereo not drawn) [Compound 15],"−S (slope of the regression curve), RP–TLC",[1],4.293
same,RM0,[1],3.17
same,"Φ0 (chromatographic lipophilicity parameter), RP–TLC",[1],0.739
same,"−S (slope of the regression curve), RP–HPLC",[2],4.449
same,log kw,[2],3.25
same,"Φ0 (chromatographic lipophilicity parameter), RP–HPLC",[2],0.730
CC1SC(NC(C)(C)C)=NC1=O (stereo not drawn) [Compound 10],"−S (slope of the regression curve), RP–TLC",[1],2.393
same,RM0,[1],1.57
same,"Φ0 (chromatographic lipophilicity parameter), RP–TLC",[1],0.658
same,"−S (slope of the regression curve), RP–HPLC",[2],3.122
same,log kw,[2],1.74
same,"Φ0 (chromatographic lipophilicity parameter), RP–HPLC",[2],0.557
CC(C)NC1=NC(=O)C2(CCC2)S1 [Compound 9],"−S (slope of the regression curve), RP–TLC",[1],1.990
same,RM0,[1],1.37
same,"Φ0 (chromatographic lipophilicity parameter), RP–TLC",[1],0.691
same,"−S (slope of the regression curve), RP–HPLC",[2],2.890
same,log kw,[2],1.79
same,"Φ0 (chromatographic lipophilicity parameter), RP–HPLC",[2],0.619
CC(C)NC1=NC(=O)C(C)(C)S1 [Compound 5],"−S (slope of the regression curve), RP–TLC",[1],1.903
same,RM0,[1],1.20
same,"Φ0 (chromatographic lipophilicity parameter), RP–TLC",[1],0.629
same,"−S (slope of the regression curve), RP–HPLC",[2],3.400
same,log kw,[2],1.94
same,"Φ0 (chromatographic lipophilicity parameter), RP–HPLC",[2],0.571
"O=C1CSC(NC23CC4CC(CC(C4)C2)C3)=N1 [Compound 28, 2-(Adamantylamino)thiazol-4(5H)-one]","−S (slope of the regression curve), RP–TLC",[1],2.482
same,RM0,[1],2.06
same,"Φ0 (chromatographic lipophilicity parameter), RP–TLC",[1],0.832
same,"−S (slope of the regression curve), RP–HPLC",[2],3.783
same,log kw,[2],2.87
same,"Φ0 (chromatographic lipophilicity parameter), RP–HPLC",[2],0.759
